Measured values published in patent US9113629B2, “4-amino-6-(4-substituted-phenyl)-picolinates and 6-amino-2-(4-substituted-phenyl)-pyrimidine-4-carboxylates and their use as herbicides” (DOW AGROSCIENCES LLC, priority 2013, dated 2015).
Where two headings read alike, the source gives them in different places.

Legend:
[1] = tested on: Key Broadleaf Weed and Crop Species; experiment: Post-emergent Test II herbicidal activity (Table 5); format: in vivo; details: post-emergence, 336 h, post-emergent, 14 days after application; for pest or weed control at 70 g/ha: 70 g ai/ha; for pest or weed control at 140 g/ha: 140 g ai/ha
Procedure, shortened: (§1)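 Post-emergence foliar spray, 187 L/ha, track sprayer at 43 cm above canopy. Carrier: acetone/water/IPA/DMSO/Atplus 411F/Triton X-155. Plants at 1st–2nd true leaf; subirrigated afterwards; % injury scored visually at 14 d.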

[2] = tested on: Key Grass and Sedge Weeds as well as Grass Crops; experiment: Post-emergent Test II herbicidal activity (Table 6); format: in vivo; details: post-emergence, 336 h; for pest or weed control at 70 g/ha: application rate 70 g ai/ha; for pest or weed control at 140 g/ha: application rate 140 g ai/ha
Procedure, shortened: as §1

[3] = ABUTH: velvetleaf (Abutilon theophrasti), read-out: Visual Growth Reduction (%) 14 Days After Application ABUTH
[4] = AMARE: redroot pigweed (Amaranthus retroflexus), read-out: Visual Growth Reduction (%) 14 Days After Application AMARE
[5] = BRSNN: oilseed-rape, canola (Brassica napus), read-out: Visual Growth Reduction (%) 14 Days After Application BRSNN
[6] = CHEAL: lambsquarters (Chenopodium album), read-out: Visual Growth Reduction (%) 14 Days After Application CHEAL
[7] = EPHHL: wild poinsettia (Euphorbia heterophylla), read-out: Visual Growth Reduction (%) 14 Days After Application EPHHL
[8] = HELAN: sunflower (Helianthus annuus), read-out: Visual Growth Reduction (%) 14 Days After Application HELAN
[9] = VIOTR: wild pansy (Viola tricolor), read-out: Visual Growth Reduction (%) 14 Days After Application VIOTR
[10] = Triticum aestivum, TRZSS (wheat), read-out: Visual Growth Reduction (%) 14 Days After Application, TRZSS
[11] = CYPES: yellow nutsedge (Cyperus esculentus), read-out: Visual Growth Reduction (%) 14 Days After Application, CYPES
[12] = DIGSA: crabgrass (Digitaria sanguinalis), read-out: Visual Growth Reduction (%) 14 Days After Application, DIGSA
[13] = ECHCG: barnyardgrass (Echinochloa crus-galli), read-out: Visual Growth Reduction (%) 14 Days After Application, ECHCG
[14] = ORYSA: rice (Oryza sativa), read-out: Visual Growth Reduction (%) 14 Days After Application, ORYSA
[15] = SETFA: giant foxtail (Setaria faberi), read-out: Visual Growth Reduction (%) 14 Days After Application, SETFA
[16] = SORVU: grain sorghum (Sorghum vulgare), read-out: Visual Growth Reduction (%) 14 Days After Application, SORVU
[17] = ZEAMX: maize, corn (Zea mays), read-out: Visual Growth Reduction (%) 14 Days After Application, ZEAMX

Compound | pest or weed control at 70 g/ha [1, 3] | pest or weed control at 140 g/ha [1, 3] | pest or weed control at 70 g/ha [1, 4] | pest or weed control at 140 g/ha [1, 4] | pest or weed control at 70 g/ha [1, 5] | pest or weed control at 140 g/ha [1, 5] | pest or weed control at 70 g/ha [1, 6] | pest or weed control at 140 g/ha [1, 6] | pest or weed control at 70 g/ha [1, 7] | pest or weed control at 140 g/ha [1, 7] | pest or weed control at 70 g/ha [1, 8] | pest or weed control at 140 g/ha [1, 8] | pest or weed control at 70 g/ha [1, 9] | pest or weed control at 140 g/ha [1, 9] | pest or weed control at 70 g/ha [2, 10] | pest or weed control at 140 g/ha [2, 10] | pest or weed control at 70 g/ha [2, 11] | pest or weed control at 140 g/ha [2, 11] | pest or weed control at 70 g/ha [2, 12] | pest or weed control at 140 g/ha [2, 12] | also measured
COC(=O)c1nc(-c2ccc(OC(F)F)cc2)c(C)c(N)c1Cl [Compound 111, Methyl 4-amino-3-chloro-6-(4-(difluoromethoxy)phenyl)-5-methylpicolinate] | 30 to 44% | 60 to 74% | 0 to 29% | 0 to 29% | 0 to 29% | 0 to 29% | 30 to 44% | 60 to 74% | 0 to 29% | 0 to 29% | 75 to 84% | 85 to 94% | 0 to 29% | 0 to 29% | 0 to 29% | 0 to 29% | 0 to 29% | 0 to 29% | 0 to 29% | 0 to 29% | pest or weed control at 70 g/ha [2, 13]: 0 to 29%; pest or weed control at 140 g/ha [2, 13]: 0 to 29%; pest or weed control at 70 g/ha [2, 14]: 0 to 29%; pest or weed control at 140 g/ha [2, 14]: 0 to 29%; pest or weed control at 70 g/ha [2, 15]: 0 to 29%; pest or weed control at 140 g/ha [2, 15]: 0 to 29%; pest or weed control at 70 g/ha [2, 16]: 0 to 29%; pest or weed control at 140 g/ha [2, 16]: 0 to 29%; pest or weed control at 70 g/ha [2, 17]: 0 to 29%; pest or weed control at 140 g/ha [2, 17]: 0 to 29%
COC(=O)c1nc(-c2ccc(Br)c(F)c2)c(C)c(N)c1Cl [Compound 112, Methyl 4-amino-6-(4-bromo-3-fluorophenyl)-3-chloro-5-methylpicolinate] | 95 to 100% | 95 to 100% | 95 to 100% | 95 to 100% | 85 to 94% | 85 to 94% | 85 to 94% | 85 to 94% | 0 to 29% | 0 to 29% | 95 to 100% | 95 to 100% | 0 to 29% | 0 to 29% | 45 to 59% | 60 to 74% | 95 to 100% | 95 to 100% | 60 to 74% | 60 to 74% | pest or weed control at 70 g/ha [2, 13]: 60 to 74%; pest or weed control at 140 g/ha [2, 13]: 60 to 74%; pest or weed control at 70 g/ha [2, 14]: 0 to 29%; pest or weed control at 140 g/ha [2, 14]: 0 to 29%; pest or weed control at 70 g/ha [2, 15]: 85 to 94%; pest or weed control at 140 g/ha [2, 15]: 95 to 100%; pest or weed control at 70 g/ha [2, 16]: 85 to 94%; pest or weed control at 140 g/ha [2, 16]: 85 to 94%; pest or weed control at 70 g/ha [2, 17]: 60 to 74%; pest or weed control at 140 g/ha [2, 17]: 60 to 74%
